We go through 19 molecules from ChEMBL document CHEMBL1201862, “PubChem BioAssay data set” (2004).

What all share (assay): NCI anticancer screen, dose series, 48 h
In experiment [1] the test system is DLD-1.
Experiment [2] deals with LXFL 529.
The subject of experiment [3] is M19-MEL.
Experiment [4] has as its system HOP-18.
Experiment [5] deals with DMS-273.
For experiment [6], the system named is SNB-78.
Experiment [7] concerns RXF 631.
In experiment [8] the test system is DMS-114.
The test system of experiment [9] is XF498.

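The compound was tested at five concentrations on cells cultured in 96-well plates, with a 48-hour exposure period. Here, GI50 denotes the concentration required for 50% inhibition of growth.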 The source made the active and inactive calls. Rule as the data show it: active = GI50 up to about 1.1 µM and inactive = higher. Where only a bound is given, the exact number is not on record here.

As to `CN1CCc2c1nc(-c1ccccc1)c1c2N(C)CC1`, the GI50 was 45.3 µM (inactive) in [1]; 52.2 µM (inactive) in experiment [2]; > 100 µM (inactive) in experiment [3]; 3.82 µM (inactive) in experiment [4]; 53.6 µM (inactive) in [5]; > 100 µM (inactive) in experiment [6].
With `CC(=O)OCC1OC(N=[N+]=[N-])C(OC(C)=O)C(OC(C)=O)C1OC1OC(COC(C)=O)C(OC(C)=O)C(OC(C)=O)C1OC(C)=O` (stereo not drawn), the GI50 in [7], in experiment [8], in experiment [2], in [9], in [3] and in experiment [5] was > 100 µM (inactive) throughout. Besides, the GI50 in [6] is 71.6 µM (inactive).
On to `O=C1CCC(Cl)=CC2CCCN12` (stereo not drawn), for which the GI50 in experiment [1], in experiment [8], in experiment [2], in experiment [3] and in [6] was > 100 µM (inactive) in each case.
Turning to `FC(F)(F)c1cccc2ns[s+]c12`, the GI50 was > 100 µM (inactive) in [7]; 35 µM (inactive) in experiment [1]; > 100 µM (inactive) in experiment [2]; > 100 µM (inactive) in experiment [9]; > 100 µM (inactive) in experiment [3]; > 100 µM (inactive) in [4]. Further, the GI50 in experiment [5] and in experiment [6] was > 100 µM (inactive) throughout.
Regarding `O=C(CC1C(=O)Nc2ccccc2[S+]1[O-])Nc1cc(Cl)ccc1Cl` (stereo not drawn), the GI50 in [7], in [1], in [8], in experiment [2], in [9] and in experiment [3] was > 100 µM (inactive) each time. The GI50 in [5] and in experiment [6] was > 100 µM (inactive) each time.
Turning to `Nn1c(S)nnc1N/N=C1/C(=O)Nc2c(Cl)cc(Cl)cc21`, the GI50 in [1] is > 100 µM (inactive); in experiment [8], > 100 µM (inactive); in experiment [2] it was 59.7 µM (inactive); in experiment [3], > 100 µM (inactive); in experiment [4], > 100 µM (inactive); in experiment [6], > 100 µM (inactive).
In the case of `CCC1(O)CC(c2ccccc2)N(C)C(c2ccccc2)C1` (stereo not drawn), the GI50 in experiment [7], in experiment [1], in experiment [8], in experiment [2], in experiment [3] and in [5] was > 100 µM (inactive) in each case. Further, the GI50 in [6] is > 100 µM (inactive).
Consider `OC[C@H]1O[C@@H](n2cnc3c(S)ncnc32)[C@H](O)[C@@H]1O` [THIOINOSINE], for which the GI50 in [8] was 1830 µM (inactive); in experiment [9], > 1260 µM (inactive); in experiment [3], > 2500 µM (inactive); in [4], 2070 µM (inactive); in experiment [5] it was 971 µM (inactive); in experiment [6], > 2500 µM (inactive).
On to `CCSc1nc(COC(=O)NC)c(COC(=O)NC)n1C`, for which the GI50 is > 100 µM (inactive) in experiment [7]; > 92.3 µM (inactive) in experiment [1]; 46.6 µM (inactive) in experiment [8]; > 37.2 µM (inactive) in [2]; > 63.5 µM (inactive) in experiment [3]; > 100 µM (inactive) in [4]. The values for the GI50 in experiment [5] and in experiment [6] were > 94.4 µM (inactive) and > 70.1 µM (inactive), respectively.
For the molecule `C[Si](C)(C)/C=C/CN1C(=O)CCC1O` (stereo not drawn), the GI50 in experiment [1], in [8], in experiment [2], in experiment [9], in [3] and in [4] was > 100 µM (inactive) throughout. The GI50 in [5] and in [6] was > 100 µM (inactive) in each case.
Take `CC1C=CC(C(N)C(=O)O)O1` (stereo not drawn): the GI50 in experiment [1], in experiment [8], in experiment [2], in experiment [9], in experiment [3] and in [5] was > 100 µM (inactive) in each case. Also, the GI50 in [6] is > 100 µM (inactive).
In the case of `Nc1ccc2nc(Nc3ccc(Cl)c(Cl)c3)cnc2c1`, the GI50 in [1] was 34.7 µM (inactive); in experiment [8] it was 10 µM (inactive); in experiment [3], 18.2 µM (inactive); in [5] it was 18.2 µM (inactive); in experiment [6] it was 24.6 µM (inactive).
Turning to `O=C(c1ccncc1)n1nc(-c2ccccc2)c(/N=N/c2ccc([N+](=O)[O-])cc2)c1-c1ccccc1`, the GI50 in [1] is > 100 µM (inactive); in [8], 24.4 µM (inactive); in [2], 13.1 µM (inactive); in [9] it was 57.8 µM (inactive); in experiment [3] it was > 100 µM (inactive); in experiment [5], > 100 µM (inactive). The GI50 in [6] was 14.8 µM (inactive).
On to `CCOc1nc(OCC)nc(-c2cccn2-c2ccccc2)n1`, for which the GI50 in experiment [7] is 57.5 µM (inactive); in experiment [8], 27.7 µM (inactive); in [3] it was 37.2 µM (inactive); in experiment [5], 30.1 µM (inactive); in experiment [6], 32.3 µM (inactive).
Take `CCCCNC1=C(C(=O)OCC)/C(=N/NC(=O)c2ccccc2O)CO1`: the GI50 in experiment [1] was 18.2 µM (inactive); in experiment [8], 36.7 µM (inactive); in experiment [2], 38 µM (inactive); in [9], > 100 µM (inactive); in experiment [3], > 100 µM (inactive); in experiment [4] it was 62.2 µM (inactive). Moreover, in [6], the GI50 was 6.93 µM (inactive).
In the case of `CCc1cccc(C(C)CC)c1NC(=O)CC1C(=O)Nc2ccccc2S1(=O)=O` (stereo not drawn), the GI50 in [1] is 13.6 µM (inactive); in experiment [8] it was 13.5 µM (inactive); in experiment [2] it was 11.2 µM (inactive); in experiment [9], > 100 µM (inactive); in experiment [3], 26.9 µM (inactive); in experiment [5] it was 13.6 µM (inactive). Further, the GI50 in experiment [6] was 14.2 µM (inactive).
Turning to `COc1ccc(-c2c(C3=NCCCN3)nnn2-c2ccccc2)cc1`, the GI50 in experiment [1], in experiment [8], in experiment [2], in [9], in experiment [3] and in experiment [4] was > 100 µM (inactive) throughout. Moreover, the GI50 in experiment [5] and in [6] was > 100 µM (inactive) each time.
As for `CCOC(=O)C(CC(C)C)NC(=O)C(N)Cc1ccc(N(CCCl)CCCl)cc1` (stereo not drawn), the GI50 in experiment [1] is 2.52 µM (inactive); in [8], 1.69 µM (inactive); in experiment [2], 2.8 µM (inactive); in experiment [9] it was 1.52 µM (inactive); in experiment [3] it was 1.65 µM (inactive); in experiment [4] it was 4.24 µM (inactive). The GI50 in experiment [5] was 0.632 µM (active).
`CC1OC(n2ccc(=O)[nH]c2=O)C=C(OC(=O)c2ccccc2)C1=O` (stereo not drawn): the GI50 in [1] was > 100 µM (inactive); in [9], 21.2 µM (inactive); in experiment [3], > 100 µM (inactive); in experiment [4], 38.4 µM (inactive); in experiment [5] it was > 100 µM (inactive); in experiment [6], > 100 µM (inactive).
